Laboratory results published in ChEMBL document CHEMBL1201862, “PubChem BioAssay data set” (2004).
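Interpolation was linear, between the two tested concentrations surrounding the appropriate level; five concentrations were tested over 48 hours in 96-well plates. GI50 is the concentration that inhibits growth by half.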 Calls of active or inactive are those of the source. No stated cut-off is given here; in the data, active = GI50 up to about 1.1 µM and inactive = higher.

Legend:
Assay in all cases: NCI anticancer screen, dose series, 48 h
SW-620 = test system: SW-620
HL-60 = test system: HL-60
UACC-62 = test system: UACC-62
M19-MEL = test system: M19-MEL
SF-539 = test system: SF-539
SF-268 = test system: SF-268
A498 = test system: A498
SF-295 = test system: SF-295
K562 = test system: K562
RXF 393 = test system: RXF 393
RPMI-8226 = test system: RPMI-8226
Malme-3M = test system: Malme-3M
MOLT-4 = test system: MOLT-4
HCT-15 = test system: HCT-15
HT-29 = test system: HT-29
SR = test system: SR

SMILES | GI50 (SW-620) | GI50 (HL-60) | GI50 (UACC-62) | GI50 (M19-MEL) | GI50 (SF-539) | GI50 (SF-268) | GI50 (A498) | GI50 (SF-295) | GI50 (K562) | GI50 (RXF 393) | GI50 (RPMI-8226) | GI50 (Malme-3M) | GI50 (MOLT-4) | GI50 (HCT-15) [µM] | GI50 (HT-29) | GI50 (SR)
CCCCNC1=C(C(=O)OCC)/C(=N/NC(=O)c2ccccc2O)CO1 | 39 µM (inactive) | 24.8 µM (inactive) | 13.1 µM (inactive) | > 100 µM (inactive) | 11.8 µM (inactive) | 6.97 µM (inactive) | > 100 µM (inactive) | 76.6 µM (inactive) | 13.2 µM (inactive) | 23.8 µM (inactive) | 86.7 µM (inactive) | 35.2 µM (inactive) | 40.1 µM (inactive) | – | – | –
CCN(CCCl)CCNc1c2ccccc2nc2ccc(OC)cc12 | 0.132 µM (active) | 0.199 µM (active) | 0.551 µM (active) | 0.703 µM (active) | 0.502 µM (active) | 0.454 µM (active) | 1.78 µM (inactive) | 0.766 µM (active) | 0.213 µM (active) | 0.54 µM (active) | 0.0977 µM (active) | 0.861 µM (active) | 0.0426 µM (active) | 0.731 | 0.267 µM (active) | –
CC(=O)CCCCCCCCCCCC[C@@H]1CC[C@H](C)[C@H](O)N1 | > 100 µM (inactive) | 43.4 µM (inactive) | 97.7 µM (inactive) | 95.5 µM (inactive) | – | > 100 µM (inactive) | – | > 100 µM (inactive) | > 100 µM (inactive) | > 100 µM (inactive) | > 100 µM (inactive) | > 100 µM (inactive) | > 100 µM (inactive) | > 100 | 38.3 µM (inactive) | 90.4 µM (inactive)
CN1CCc2c1nc(-c1ccc([N+](=O)[O-])cc1)c1c2N(C)CC1 | > 100 µM (inactive) | 60.1 µM (inactive) | > 100 µM (inactive) | > 100 µM (inactive) | > 100 µM (inactive) | > 100 µM (inactive) | 43.2 µM (inactive) | > 100 µM (inactive) | 46 µM (inactive) | 35.2 µM (inactive) | 48 µM (inactive) | > 100 µM (inactive) | 91.2 µM (inactive) | 99.5 | 25.5 µM (inactive) | –
NNC(=O)C(=O)N/N=C(\CCCC(=O)Nc1ccc(Cl)cc1)CC(=O)c1ccc(F)cc1 | > 100 µM (inactive) | > 100 µM (inactive) | 3.43 µM (inactive) | 53.3 µM (inactive) | – | > 100 µM (inactive) | 2.66 µM (inactive) | > 100 µM (inactive) | – | > 100 µM (inactive) | 36.1 µM (inactive) | > 100 µM (inactive) | > 100 µM (inactive) | – | 83.2 µM (inactive) | –
CCN(CC)CCNC(=O)c1cccc2cc3ccccc3nc12 | 3.49 µM (inactive) | 4.8 µM (inactive) | 4.79 µM (inactive) | 4.89 µM (inactive) | 4.49 µM (inactive) | 6.84 µM (inactive) | 6.92 µM (inactive) | 7.23 µM (inactive) | 3.72 µM (inactive) | 3.49 µM (inactive) | – | – | 2.96 µM (inactive) | 4.47 | 3.95 µM (inactive) | –
Cc1nc(-n2nc(-c3ccccc3)cc2-c2ccccc2)sc1C(=O)/C=C/c1ccccc1 | 59 µM (inactive) | 60.4 µM (inactive) | > 100 µM (inactive) | > 100 µM (inactive) | > 100 µM (inactive) | > 100 µM (inactive) | > 100 µM (inactive) | > 100 µM (inactive) | 49.8 µM (inactive) | > 100 µM (inactive) | > 100 µM (inactive) | > 100 µM (inactive) | 31.8 µM (inactive) | > 100 | > 100 µM (inactive) | –
CC(C)c1cccc(C(C)C)c1NC(=O)C(=O)C(C(=O)c1ccccc1-c1ccccc1)C1OC(=O)c2ccccc21 (stereo unspecified) | 19.9 µM (inactive) | – | 17.5 µM (inactive) | 17.1 µM (inactive) | 12.6 µM (inactive) | 21.7 µM (inactive) | – | 16.6 µM (inactive) | 21.4 µM (inactive) | 12.9 µM (inactive) | 32.6 µM (inactive) | 14.8 µM (inactive) | 11.6 µM (inactive) | 18.4 | 17.9 µM (inactive) | 22.6 µM (inactive)
